Results reported in publication PMC7070382, “Cannabidiol Protects Dopaminergic Neurons in Mesencephalic Cultures against the Complex I Inhibitor Rotenone Via Modulation of Heme Oxygenase Activity and Bilirubin” (Antioxidants, 2020).

How the values were obtained:
heme oxygenase (HO) [1] = system: T1, heme oxygenase (HO); assay: in vitro HO activity (hemin to bilirubin, spectrophotometric) in cell homogenate; Lineweaver-Burk kinetics; format: biochemical
T1 construct: gene Hmox1; endogenous enzyme in J774A.1 cell homogenate; isoform not specified

heme oxygenase (HO) [2] = system: T1, heme oxygenase (HO); assay: in vitro HO activity (hemin to bilirubin, spectrophotometric) in cell homogenate; format: biochemical

Structure (SMILES) | IC50 (heme oxygenase (HO) [1]) | IC50 (heme oxygenase (HO) [2])
C=C(C)[C@@H]1CCC(C)=C[C@H]1c1c(O)cc(CCCCC)cc1O [CBD, cannabidiol] | 30 µM | 
CCCCCc1cc(O)c2c(c1)OC(C)(C)[C@@H]1CCC(C)=C[C@@H]21 [THC, tetrahydrocannabinol] |  | 56 µM
